Where “and” joins values, the source holds several entries; their conditions need not be identical. Equal values may be shown once. Read-outs that look alike come from different tables or passages of the source.
B1: glycosylated human IFNγ (natural protein, UniProt P01579 24-161, looked up)
chain: QDPYVKEAENLKKYFNAGHSDVADNGTLFLGILKNWKEESDRKIMQSQIVSFYFKLFKNFKDDQSIQKSVETIKEDMNVKFFNSNKKKRDDFEKLTNYSVTDLNVQRKAIHELIQVMAELSPAAKTGKRKRSQMLFRG
modifications: glycosylated
notes: interferon-gamma, human, glycosylated; also called interferon-gamma; INFγ; source: bought: Sigma-Aldrich

Key:
human Gal-3 = biological target: T1, human Gal-3 (Homo sapiens, UniProt P17931); assay: Competitive ELISA-type assay: inhibition of Gal-3 binding to immobilized asialofetuin (ASF); conditions: for Selectivity for Gal-3: IC50 for Gal-1/IC50 for Gal-3
T1 construct: made in house; host or cells: E. coli Rosetta 2(DE3)pLysS
T1 sequence (P17931 whole entry): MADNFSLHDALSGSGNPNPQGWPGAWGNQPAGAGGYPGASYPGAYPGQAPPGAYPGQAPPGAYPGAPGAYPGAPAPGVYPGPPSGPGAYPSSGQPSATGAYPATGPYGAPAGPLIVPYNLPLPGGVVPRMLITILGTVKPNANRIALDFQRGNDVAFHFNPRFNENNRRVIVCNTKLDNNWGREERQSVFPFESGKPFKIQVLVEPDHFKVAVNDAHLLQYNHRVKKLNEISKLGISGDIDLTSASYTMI
Procedure: Microtiter plates (Nunc Immuno Sorb, ThermoFisher Scientific, USA) were coated with ASF (0.1 µM in PBS, pH 7.5, 50 µL/well) and incubated overnight. The wells were washed with 3×250 µL of PBS containing 0.05% Tween (repeated after each step). The wells were then blocked by 2% w/v BSA in PBS buffer (250 µL/well) for 1 h. Serial dilutions of the ligands (glycopolymers or oligosaccharides) in EPBS (2 mM EDTA in PBS) were incubated with Gal-1 or Gal-3 (1.25 µM final concentration) for 2 h. The residual bound galectin was labeled with anti-His antibody conjugated to horseradish peroxidase (Santa Cruz; 1:1000 dilution in PBS, 1 h). TMB One substrate solution (Kem-En-Tech, Denmark; 50 µL/well) was added, and the reactions were incubated until visible blue staining appeared (3–20 min). The reaction was stopped by adding 3 M HCl (50 µL per well), resulting in a color shift to yellow, which was determined spectrophotometrically by an absorbance microplate reader (Sunrise Tecan Group Ltd, CH). The intensity of the signal at 450 nm corresponded to the amount of galectin bound to the wells. Non-linear regression (dose–response inhibition-variable slope) of the sigmoidal curves was used to calculate the values of half-maximal inhibitory constants (IC50) from at least six independent experiments using GraphPad Prism 7 (GraphPad Software, USA).
For the affinity measurement, the competitive ELISA assay with ASF as an immobilized competitor ligand was employed.[51] […] The inhibitory potency of the prepared glycopolymers was compared to the respective monovalent standards (LN1-LN2-tBoc, LN2-LN2-tBoc, LDN-LN2-tBoc) to calculate their relative potencies (rp) for inhibition of Gal-3 (Table 1). Relative potency values thus disclose the extent of the so-called multivalency effect of the glycopolymer – the ability of a ligand bound to a multivalent carrier to get easier access and orientation to the lectin-binding site.[52]

J774A.1 macrophages = assay: Gal-3-induced apoptosis of J774A.1 macrophages, Annexin V flow cytometry; assay type: cell-based, murine; conditions: 10 µM Gal-3, 24 h, no glycopolymer
Procedure: For flow cytometry studies, cultured undifferentiated (without any LPS and cytokines) J774A.1 murine macrophages were seeded in a concentration of 10^5 cells/well of the 24-well plate. After 24 h of cultivation, cells were pretreated with the desired concentration of glycopolymers for 5 minutes and afterward treated with 10 μM Gal-3 for 24 h. After harvesting of cells, early and late apoptoses of Gal-3-treated J774A.1 cells in the presence or absence of glycopolymers were evaluated using eBioscience Annexin V apoptosis detection kit (Thermo Fisher Scientific). Flow cytometry was performed using FACS Canto II (BD Biosciences, Franklin Lakes, NJ, USA). Apoptotic half-maximal inhibitory concentrations (IC50) of individual glycopolymers were calculated by nonlinear regression of log(glycopolymer concentration) versus apoptosis response using GraphPad Prism 8 software (version 8.0.1; GraphPad Software, La Jolla, CA, USA).
Tumor-associated macrophages (TAMs) are defined as M1 or M2 subtypes, which differ in their roles in carcinogenesis.[56] Phenotypically M2 macrophages, which are usually more abundant inside tumors and seem to be mainly responsible for the spread of cancer,[57] are chemoattracted into the tumor mass by the Gal-3 gradient.[11] Therefore, we aimed to investigate the inhibitory potential of prepared glycopolymers towards Gal-3 in the context of monocytes and macrophages. […]

[1] = biological target: T2, recombinant human Gal-3 biotinylated at the lysine of the N-terminal AVI-tag (human, UniProt P17931 1-250, biotin on the lysine of the AVI-tag (…)); assay: depletion from solution by coated magnetic beads, ELISA of the supernatant; biotinylated Gal-3 on Dynabeads M-280 Streptavidin; increasing amount of beads incubated with glycosylated IFNγ, 1 h, room temperature; beads separated, IFNγ left in the supernatant measured by ELISA; conditions: both partners purified
T2 construct: galectin-3, human; Gal-3-AVI construct in pET-Duet1; Held on streptavidin Dynabeads M-280 through the biotin; also called Gal-3-AVI; biotinylated Gal-3; source: E. coli BL21 (DE3) with birA biotin ligase, purified (Ni-NTA)
T2 sequence (P17931 whole entry): as above

[2] = IC50 per glycan, Gal-3 1.25 µM, binding to immobilized ASF, read-out: IC50 [µM]/Glycan

| binding result [1] | Molecule | Selectivity for Gal-3 (human Gal-3) | IC50 (human Gal-3; [2]) | IC50 (human Gal-3; concentration required to inhibit Gal-3 binding to immobilized ASF by 50%, read-out: IC50) | apoptosis of J774A.1 cells induced by Gal-3 (J774A.1 macrophages) |
| --- | --- | --- | --- | --- | --- |
|  | CC(=O)N[C@@H]1[C@@H](O)[C@H](O[C@@H]2O[C@H](CO)[C@H](O)[C@H](O[C@@H]3O[C@H](CO)[C@@H](O)[C@H](O[C@@H]4O[C@H](CO)[C@H](O)[C@H](O)[C@H]4O)[C@H]3NC(C)=O)[C@H]2O)[C@@H](CO)O[C@H]1NC(=S)NCCNC(=O)OC(C)(C)C [Glycopolymer 4, (tert-Butoxycarbonylamino)ethylthioureidyl β-D-Galactopyranosyl-(1→3)-2-Acetamido-2-Deoxy-β-D-Glucopyranosyl-(1→3)-β-D-Galactopyranosyl-(1→4)-2-Acetamido-2-Deoxy-β-D-Glucopyranoside] | 17 | 27.1 ± 4.4 µM | 27.1 ± 4.4 µM |  |
|  | CC(=O)N[C@@H]1[C@@H](O)[C@H](O[C@@H]2O[C@H](CO)[C@H](O)[C@H](O[C@@H]3O[C@H](CO)[C@@H](O[C@@H]4O[C@H](CO)[C@H](O)[C@H](O)[C@H]4O)[C@H](O)[C@H]3NC(C)=O)[C@H]2O)[C@@H](CO)O[C@H]1NC(=S)NCCNC(=O)OC(C)(C)C [Glycopolymer 5, (tert-Butoxycarbonylamino)ethylthioureidyl β-D-Galactopyranosyl-(1→4)-2-Acetamido-2-Deoxy-β-D-Glucopyranosyl-(1→3)-β-D-Galactopyranosyl-(1→4)-2-Acetamido-2-Deoxy-β-D-Glucopyranoside] | 10 | 10.2 ± 3.2 µM |  |  |
|  | CC(=O)N[C@@H]1[C@@H](O)[C@H](O[C@@H]2O[C@H](CO)[C@H](O)[C@H](O[C@@H]3O[C@H](CO)[C@@H](O[C@@H]4O[C@H](CO)[C@H](O)[C@H](O)[C@H]4NC(C)=O)[C@H](O)[C@H]3NC(C)=O)[C@H]2O)[C@@H](CO)O[C@H]1NC(=S)NCCNC(=O)OC(C)(C)C [Glycopolymer 6, (tert-Butoxycarbonylamino)ethylthioureidyl 2-Acetamido-2-Deoxy-β-D-Galactopyranosyl-(1→4)-2-Acetamido-2-Deoxy-β-D-Glucopyranosyl-(1→3)-β-D-Galactopyranosyl-(1→4)-2-Acetamido-2-Deoxy-β-D-Glucopyranoside] | 13 | 7.4 ± 0.5 µM |  |  |
|  | Gal-3: Recombinant human galectin-3, N-terminal His-tagged protein construct produced in E. coli; used to induce apoptosis |  |  |  | 20.7 ± 0.8% and 15–25% |
| binds | B1 |  |  |  |  |

— paper PMC12118576, “Selective Glycopolymer Inhibitors of Galectin-3: Supportive Anti-Cancer Agents Protecting Monocytes and Preserving Interferon-Gamma Function” (International Journal of Nanomedicine, 2025)
